Where two headings read alike, the source gives them in different places.
Experiments:
[1] = molecular target: human CMV DNA polymerase UL54 (Human cytomegalovirus (strain AD169) (HHV-5) (Human herpesvirus 5), UniProt P08546); test: CMV polymerase biochemical assay (molecular beacon-based)
How it was run: (§1)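 Readout was beacon fluorescence (ex 480, em 535 nm), used to derive IC50. Each dNTP was at 1.25 uM, with 200 nM primer and 100 nM beacon, after a 30-min RT inhibitor preincubation. Enzyme was 625 pM for HSV UL30 (20 min RT reaction) or 100 pM for CMV UL54 (60 min RT), both sf9-expressed MBP fusions, in pH 7.5 Tris buffer with MgCl2.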

[2] = tested on: Luciferase-encoding HCMV, AD169 strain; test: CMV Luciferase assay (cellular herpesvirus replication); type: cell-based
How it was run: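 Neonatal human dermal fibroblasts were pretreated 1 h with compound (final 0.0159–50 μM or 0.00318–10 μM, 0.5% DMSO), then infected at MOI 1 with AD169 carrying pp28-promoter luciferase. After 72 h at 37 °C, Renilla-Glo luminescence normalized to no-virus and virus-only controls; EC50 by 4-parameter logistic model.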

[3] = molecular target: human HSV DNA polymerase UL30 (Human herpesvirus 1 (strain 17) (HHV-1) (Human herpes simplex virus 1), UniProt P04293); test: HSV polymerase biochemical assay (molecular beacon-based)
How it was run: as §1

[4] = Human betaherpesvirus 5, AD169, read-out: CMV-Luc Cellular EC50
[5] = read-out: CMV-Luc Cellular EC50

Row | SMILES | IC50 [1] | EC50 [2, 4] | IC50 [3] | EC50 [2, 5]
1 | N#Cc1ccc(CNC(=O)c2ccc3n(c2=O)CCN(CC2(S(=O)(=O)N4CC(F)(F)C4)CC2)C3=O)cc1 [Example 84-1, N-(4-cyanobenzyl)-2-((1-((3,3-difluoroazetidin-1-yl)sulfonyl)cyclopropyl)methyl)-1,6-dioxo-2,3,4,6-tetrahydro-1H-pyrido[1,2-a]pyrazine-7-carboxamide] | 3.9 nM | 69.6 nM | 102 nM | –
2 | N#Cc1ccc(CNC(=O)c2ccc3n(c2=O)CCN(CC2(S(=O)(=O)N4CC(F)(F)C4)CC2)C3=O)cc1F [Example 84-2] | 2.8 nM | 54.8 nM | 80.6 nM | –
3 | O=C(NCc1ccc(Cl)cc1)c1ccc2n(c1=O)CCN(CC1(S(=O)(=O)N3CC(F)(F)C3)CC1)C2=O [Example 84-3] | 1.4 nM | 31 nM | 52.6 nM | –
4 | Cc1cc(C(=O)NCc2ccc(C#N)cc2)c(=O)n2c1C(=O)N(CC1(S(C)(=O)=O)CC1)CC2 [Example 85, N-(4-cyanobenzyl)-9-methyl-2-((1-(methylsulfonyl)cyclopropyl)methyl)-1,6-dioxo-2,3,4,6-tetrahydro-111-pyrido[1,2-a]pyrazine-7-carboxamide] | 4.7 nM | – | 102 nM | 177 nM
5 | Cc1cc(C(=O)NCc2ccc(F)cc2)c(=O)n2c1C(=O)N(CC1(S(C)(=O)=O)CC1)CC2 [Example 86-1] | 11.2 nM | 1520 nM | 287 nM | –
6 | Cc1cc(C(=O)NCc2ccc(C#N)c(F)c2)c(=O)n2c1C(=O)N(CC1(S(C)(=O)=O)CC1)CC2 [Example 86-2] | 4.6 nM | 226 nM | 276 nM | –
7 | Cc1cc(C(=O)NCc2ccc(Cl)cc2)c(=O)n2c1C(=O)N(CC1(S(C)(=O)=O)CC1)CC2 [Example 86-3] | 1.8 nM | – | 45.3 nM | 34.6 nM
8 | O=C(NCc1ccc(Cl)cc1)c1ccc2n(c1=O)CCN(CC1(S(=O)(=O)N3CCC3)CC1)C2=O [Example 87, 2-((1-(azetidin-1-ylsulfonyl)cyclopropyl)methyl)-N-(4-chlorobenzyl)-1,6-dioxo-2,3,4,6-tetrahydro-1H-pyrido[1,2-a]pyrazine-7-carboxamide] | 1.2 nM | 25.7 nM | 35.1 nM | –
9 | N#Cc1ccc(CNC(=O)c2ccc3n(c2=O)CCN(CC2(S(=O)(=O)N4CCC4)CC2)C3=O)cc1F [Example 88-1, 2-((1-(azetidin-1-ylsulfonyl)cyclopropyl)methyl)-N-(4-cyano-3-fluorobenzyl)-1,6-dioxo-2,3,4,6-tetrahydro-1H-pyrido[1,2-a]pyrazine-7-carboxamide] | 2 nM | 24.2 nM | 65.1 nM | –
10 | N#Cc1ccc(CNC(=O)c2ccc3n(c2=O)CCN(CC2(S(=O)(=O)N4CCC4)CC2)C3=O)cc1 [Example 88-2] | 3.2 nM | 39.5 nM | 73.5 nM | –
11 | O=C(NCc1ccc(Cl)cc1)c1ccc2n(c1=O)CCN(CC1(N3CCOC3=O)CC1)C2=O [Example 89-1, N-(4-chlorobenzyl)-1,6-dioxo-2-((1-(2-oxooxazolidin-3-yl)cyclopropyl)methyl)-2,3,4,6-tetrahydro-1H-pyrido[1,2-a]pyrazine-7-carboxamide] | 79.3 nM | 4900 nM | 1260 nM | –
12 | N#Cc1ccc(CNC(=O)c2ccc3n(c2=O)CCN(CC2(N4CCOC4=O)CC2)C3=O)cc1 [Example 89-2] | 174 nM | 3330 nM | 2520 nM | –
13 | CN(C)S(=O)(=O)C1(CN2CCn3c(ccc(C(=O)NCc4ccc(Cl)cc4)c3=O)C2=O)CC1 [Example 90-1, N-(4-chlorobenzyl)-2-((1-(N,N-dimethylsulfamoyl)cyclopropyl)methyl)-1,6-dioxo-2,3,4,6-tetrahydro-1H-pyrido[1,2-a]pyrazine-7-carboxamide] | 0.4 nM | 13.4 nM | 12.3 nM | –
14 | CC1CN(CCN(C)S(C)(=O)=O)C(=O)c2ccc(C(=O)NCc3ccc(Cl)cc3)c(=O)n21 (stereo not drawn) [Example 91, N-(4-chlorobenzyl)-4-methyl-2-(2-(N-methylmethylsulfonamido)ethyl)-1,6-dioxo-2,3,4,6-tetrahydro-1H-pyrido[1,2-a]pyrazine-7-carboxamide] | 186 nM | 2480 nM | 2250 nM | –
15 | CC1Cn2c(ccc(C(=O)NCc3ccc(Cl)cc3)c2=O)C(=O)N1CCN(C)S(C)(=O)=O (stereo not drawn) [Example 92, N-(4-chlorobenzyl)-3-methyl-2-(2-(N-methylmethylsulfonamido)ethyl)-1,6-dioxo-2,3,4,6-tetrahydro-1H-pyrido[1,2-a]pyrazine-7-carboxamide] | 312 nM | 2980 nM | 1340 nM | –
16 | Cc1cc(C(=O)NCc2ccc(C#N)cc2)c(=O)n2c1C(=O)N(CC1(S(=O)(=O)C3CC3)CC1)CC2 [Example 93-1, N-(4-cyanobenzyl)-2-((1-(cyclopropylsulfonyl)cyclopropyl)methyl)-9-methyl-1,6-dioxo-2,3,4,6-tetrahydro-1H-pyrido[1,2-a]pyrazine-7-carboxamide] | 1.1 nM | 38.6 nM | 46.7 nM | –
17 | Cc1cc(C(=O)NCc2ccc(Cl)cc2)c(=O)n2c1C(=O)N(CC1(S(=O)(=O)C3CC3)CC1)CC2 [Example 93-2] | 0.8 nM | 15.3 nM | 28.6 nM | –
18 | Cc1cc(C(=O)NCc2ccc(C#N)c(F)c2)c(=O)n2c1C(=O)N(CC1(S(=O)(=O)C3CC3)CC1)CC2 [Example 93-3] | 5.9 nM | 21 nM | 28.3 nM | –

Row | SMILES | IC50 [1] | EC50 [2, 4] | IC50 [3] | EC50 [2, 5]
19 | CC1(S(=O)(=O)C2(CN3CCn4c(ccc(C(=O)NCc5ccc(C#N)cc5)c4=O)C3=O)CC2)CC1 [Example 94-1] | 0.6 nM | 13.3 nM | 33.2 nM | –
20 | CC1(S(=O)(=O)C2(CN3CCn4c(ccc(C(=O)NCc5ccc(C#N)c(F)c5)c4=O)C3=O)CC2)CC1 [Example 94-2] | 0.3 nM | 7.9 nM | 25.3 nM | –
21 | CS(=N)(=O)C1(CN2CCn3c(ccc(C(=O)NCc4ccc(Cl)cc4)c3=O)C2=O)CC1 (stereo not drawn) [Example 95, N-(4-chlorobenzyl)-2-((1-(S-methylsulfonimidoyl)cyclopropyl)methyl)-1,6-dioxo-2,3,4,6-tetrahydro-1H-pyrido[1,2-a]pyrazine-7-carboxamide] | 16.6 nM | 263 nM | 722 nM | –
22 | N#Cc1ccc(CNC(=O)c2ccc3n(c2=O)CCN(CC2(S(=O)(=O)C4(C(F)(F)F)CC4)CC2)C3=O)cc1 [Example 97-1] | 5 nM | 222 nM | 122 nM | –
23 | N#Cc1ccc(CNC(=O)c2ccc3n(c2=O)CCN(CC2(S(=O)(=O)C4(C(F)(F)F)CC4)CC2)C3=O)cc1F [Example 97-2] | 3.2 nM | 189 nM | 90.8 nM | –
24 | N#Cc1ccc(CNC(=O)c2ccc3n(c2=O)CCN(CC2(S(=O)(=O)C4CC4(F)F)CC2)C3=O)cc1 (stereo not drawn) [Example 98-1] | 1.5 nM | 65.2 nM | 57.5 nM | –
25 | N#Cc1ccc(CNC(=O)c2ccc3n(c2=O)CCN(CC2(S(=O)(=O)C4CC4(F)F)CC2)C3=O)cc1F (stereo not drawn) [Example 98-2] | 1.2 nM | 41 nM | 57.6 nM | –
26 | N#Cc1ccc(CNC(=O)c2ccc3n(c2=O)CCN(CC2(S(=O)(=O)C4CC4(F)F)CC2)C3=O)cc1Cl (stereo not drawn) [Example 98-3] | 1.7 nM | 102 nM | 200 nM | –
27 | N#Cc1ccc(CNC(=O)c2ccc3n(c2=O)CCN(CC2(S(=O)(=O)C4(C(F)F)CC4)CC2)C3=O)cc1 [Example 99-1] | 1 nM | 43.9 nM | 49.4 nM | –
28 | N#Cc1ccc(CNC(=O)c2ccc3n(c2=O)CCN(CC2(S(=O)(=O)C4(C(F)F)CC4)CC2)C3=O)cc1F [Example 99-2] | 0.7 nM | 30.1 nM | 52.4 nM | –
29 | N#Cc1ccc(CNC(=O)c2ccc3n(c2=O)CCN(CC2(S(=O)(=O)C4(C(F)F)CC4)CC2)C3=O)cc1Cl [Example 99-3] | 0.8 nM | 172 nM | 201 nM | –
30 | CC1(CS(=O)(=O)C2(CN3CCn4c(ccc(C(=O)NCc5ccc(Cl)cc5)c4=O)C3=O)CC2)COC1 [Example 103-1] | 9.4 nM | 237 nM | 109 nM | –
31 | CC1(CS(=O)(=O)C2(CN3CCn4c(ccc(C(=O)NCc5ccc(C#N)cc5)c4=O)C3=O)CC2)COC1 [Example 103-2] | 1.1 nM | 1270 nM | 108 nM | –
32 | CC1(CS(=O)(=O)C2(CN3CCn4c(ccc(C(=O)NCc5ccc(C#N)c(F)c5)c4=O)C3=O)CC2)COC1 [Example 103-3] | 10.8 nM | 791 nM | 170 nM | –
33 | O=C(NCc1ccc(Cl)cc1)c1ccc2n(c1=O)CCN(CC1(S(=O)(=O)CC3(C(F)(F)F)CC3)CC1)C2=O [Example 104-1] | 18.6 nM | 639 nM | 185 nM | –
34 | N#Cc1ccc(CNC(=O)c2ccc3n(c2=O)CCN(CC2(S(=O)(=O)CC4(C(F)(F)F)CC4)CC2)C3=O)cc1 [Example 104-2] | 24.3 nM | 1820 nM | 301 nM | –
35 | N#Cc1ccc(CNC(=O)c2ccc3n(c2=O)CCN(CC2(S(=O)(=O)CC4(C(F)(F)F)CC4)CC2)C3=O)cc1F [Example 104-3] | 10.1 nM | 1080 nM | 273 nM | –
